# Publication PMC5608556, “Photo-affinity labelling and biochemical analyses identify the target of trypanocidal simplified natural product analogues” (PLoS Neglected Tropical Diseases, 2017)
# Key:
# T. brucei BSF = assay: Toxicity (EC50) in bloodstream form T. brucei; type: cell-based, Trypanosoma brucei
# Excerpt: (§1) Fig 1 Labelling and detection of B-THP-T target(s). (A) Structures of chamuvarinin and simplified analogues thereof as probes used in this study and their respective toxicity in selected cell lines. Bi-functional compound 3 contains a diazirine (blue) to cross-link the compound to its target and an alkyne handle (red) to which an azide-containing reporter probe can be added. Mono-functional compound 2 contains the diazirine to cross-link to its target but lacks the alkyne handle and cannot be appended with an azide reporter probe. Lead B-THP-T, compound 1, lacks both diazirine and alkyne. The additional functional groups on compounds 2 and 3 are minor alterations, which have little effect on inhibitor potency. (B) Overview of the in vivo pulse-chase photo-affinity labelling procedure. B-THP-T were incubated with live PF T. brucei cells and trafficked to their targets. Following UV-irradiation, only compounds containing a diazirine (i.e. compounds 2 and 3) could cross-link with target proteins. The subsequent “click reaction” appended the conjugated B-THP-T with a reporter probe as long as an alkyne handle was present (i.e. on compound 3). Refer to the experimental section for details. (C) Detection of Cy5.5-tagged proteins following photo-affinity labelling. Proteins were separated by SDS-PAGE and conjugated Cy5.5 was detected at 700 nm. Lanes 1–3 correspond to usage of compounds 1–3 respectively. Several proteins in lane 3 were conjugated with Cy5.5 via labelling with bi-functional compound 3. […]
# T. brucei PF = assay: Toxicity (EC50, cell viability) in procyclic form T. brucei; type: cell-based; conditions: Trypanosoma brucei, live cells, 72 h incubation, footnote a
# Excerpt: as §1
# The potency of lead B-THP-T, compound 1, was determined against oxidative phosphorylation in dose-response assays in digitonin-permeabilised PF T. brucei.
# Supplementary file pntd.0005886.s001.tiff: S1 Fig Dose-response of B-THP-T compounds in PF T. brucei. EC50 values were determined for compounds 1–3 in PF T. brucei. […]
# [1] = test system: mitochondrial membrane potential (Δψm) in live PF T. brucei; assay: MitoTracker monitoring of mitochondrial membrane potential; type: cell-based, Trypanosoma brucei; conditions: 2 h; for Elevation of mitochondrial membrane potential (Δψm): compounds at 40 μM, MitoTracker Red/Green ratio relative to uninhibited control; for Effect on mitochondrial membrane potential (Δψm): AA and OA 2 μM, DNP 1 mM
# Excerpt: To determine which mitochondrial complex of oxidative phosphorylation was targeted by B-THP-T compounds, their effects on the mitochondrial membrane potential (Δψm) were monitored in live PF T. brucei (Fig 6A). MitoTracker Red CMXRos, like tetramethylrhodamine and safranine, accumulates in active mitochondria and the degree of accumulation is dependent on the Δψm, however, accumulation of MitoTracker Green FM is independent of the Δψm and the ratio of red/green uptake can therefore be used to determine the Δψm normalised to the number and size of mitochondria present. […] Similarly, compounds 1 and 3 elevated the mitochondrial membrane potential (by 2-3-fold), confirming that they, like OA, reduce oxidative phosphorylation by the inhibition of the FoF1-ATP synthase.
# Fig 6 Effects of compounds on mitochondrial membrane potential. PF T. brucei were incubated with inhibitors and MitoTracker Red CMXRos, which is an indicator of the mitochondrial membrane potential (Δψm). (A) MitoTracker-loaded cells were imaged to qualitatively detect differences in the Δψm. […] (B) Fluorescence of MitoTracker-loaded cells were quantified using a microplate reader and normalised to MitoTracker green fluorescence.
# 2 x 10^6 PF T. brucei cells were incubated in 1 mL GF-SDM-79 growth media supplemented with/without inhibitors for 2 h. B-THP-Ts were used at 40 μM, AA and OA at 2 μM, DNP at 1 mM and SHAM at 100 μM. MitoTracker Red CMXRos and MitoTracker Green FM were added to 100 nM and 1 μM respectively and incubated for a further 10 min. Cells were washed in growth medium and the MitoTracker reagents chased into the mitochondrion for 10 min in fresh growth medium supplemented with inhibitors. Cells were washed again in growth medium to remove unincorporated MitoTracker reagents, pelleted, suspended in 100 μL 4% PFA in PBS, and fixed at RT in the dark for 10 min. Fixed cells were pelleted and suspended in 100 μl PBS. Cells were transferred to poly-lysine-coated slides and mounted with DAPI-containing SlowFade mounting medium (Invitrogen). Fluorescence images were collected with a DeltaVision microscope (as detailed above) to show MitoTracker localisation and comparative intensity.
# 1 mL of cells at 1 x 10^7 cells/mL were labelled as above. However, instead of fixing cells they were resuspended in 200 μL growth medium and transferred to 96-well plates. Fluorescences were recorded (excitation at 540/35 nm, emission at 590/10 nm for MitoTracker Red CMXRos, and excitation at 485/20 nm, emission at 528/20 nm for MitoTracker Green FM) using a BioTek FLX800 spectrofluorimeter and Gen5 Reader Control 2.0 software, in much the same way as others have recorded previously. Background fluorescence values were subtracted from each and MitoTracker Red fluorescences normalised against their MitoTracker Green FM counterparts. Membrane potentials were then calculated relative to the uninhibited controls.
# HeLa = assay: Toxicity (EC50) in HeLa cells; type: cell-based; conditions: Homo sapiens, footnote b, read-out: EC50 values Mammal HeLa
# Excerpt: (§2) Fig 1 Labelling and detection of B-THP-T target(s). (A) Structures of chamuvarinin and simplified analogues thereof as probes used in this study and their respective toxicity in selected cell lines. Bi-functional compound 3 contains a diazirine (blue) to cross-link the compound to its target and an alkyne handle (red) to which an azide-containing reporter probe can be added. Mono-functional compound 2 contains the diazirine to cross-link to its target but lacks the alkyne handle and cannot be appended with an azide reporter probe. Lead B-THP-T, compound 1, lacks both diazirine and alkyne. The additional functional groups on compounds 2 and 3 are minor alterations, which have little effect on inhibitor potency. (B) Overview of the in vivo pulse-chase photo-affinity labelling procedure. B-THP-T were incubated with live PF T. brucei cells and trafficked to their targets. Following UV-irradiation, only compounds containing a diazirine (i.e. compounds 2 and 3) could cross-link with target proteins. The subsequent “click reaction” appended the conjugated B-THP-T with a reporter probe as long as an alkyne handle was present (i.e. on compound 3). Refer to the experimental section for details. (C) Detection of Cy5.5-tagged proteins following photo-affinity labelling. Proteins were separated by SDS-PAGE and conjugated Cy5.5 was detected at 700 nm. […]
# Vero = assay: Toxicity (EC50) in Vero cells; type: cell-based; conditions: Chlorocebus sabaeus, footnote b, read-out: EC50 values Mammal Vero
# Excerpt: as §2
Compound,Selectivity towards T. brucei over mammalian HeLa cells (T. brucei BSF; from EC50 values of Fig 1),EC50 (T. brucei PF),Elevation of mitochondrial membrane potential (Δψm) [1],"EC50 (T. brucei BSF; Trypanosoma brucei, bloodstream form, footnote b)",EC50 (HeLa),EC50 (Vero),Effect on mitochondrial membrane potential (Δψm) [1]
CCCCCC[C@H]1CCC[C@@H](Cn2cc([C@@H]3CCC[C@H](CCCCO)O3)nn2)O1 [Compound 1],only modest selectivity,8.4 µM,2-3 fold,,,,
C#CCNC(=O)CCC[C@H]1CC2(C[C@@H](Cn3cc([C@@H]4CCC[C@H](CCCCOCc5ccccc5)O4)nn3)O1)N=N2 [Compound 3],,16.1 ± 0.6 µM,2-3 fold,13 ± 1 µM,21.3 ± 2 µM,21.3 ± 2 µM,
CCCCCC[C@H]1C(=O)O[C@H](C)[C@H](NC(=O)c2cccc(NC=O)c2O)C(=O)O[C@@H](C)[C@@H]1OC(=O)CC(C)C [antimycin A],,,,,,,decrease the Δψm
O=C(O)CC(=O)O [malonate],,,,,,,decrease the Δψm
